{
  "source": "patent EP4722365A1",
  "about": "“DOUBLE-STRANDED NUCLEOTIDE COMPOUND FOR METABOLIC DISEASES AND USE THEREOF” (Visirna Therapeutics (Suzhou) Co., Ltd., priority 2023, dated 2024)",
  "test_system": "hDGAT2",
  "experiment": "Mouse model receiving hydrodynamic injection of DGAT2 plasmid via tail vein (Example 5, liver mRNA qPCR)",
  "type": "in vivo",
  "details": "3mpk subcutaneously day 0, HDI day 14, BALB/c mice",
  "method": "BALB/c mice, female, 6-7 weeks old.\npcDNA-DGAT2 plasmid, having a concentration of 2 µg/µL, diluted with physiological saline for later use.\nThe hydrodynamic injection scheme of DGAT2 plasmid DNA via tail vein, the administration and the sample collection method were as follows.\nTreatment with compound: The day of administration to mice was defined as day 0, the day before it was day -1, the day after it was day 1, and so on. On day 0, the mice were injected subcutaneously with 5 mL/kg of the solvent or the test compound, at a dosage of 3mpk.\nHydrodynamic injection of DGAT2 plasmid DNA solution into mice via tail vein: On day 4 or 14, the plasmid DNA was prepared with normal saline before injection, and stored at 4°C until use. All mice were injected with the plasmid DNA solution in a volume of 8% of the body weight (injection volume (mL)= body weight of mice (g) x 8%) in 5 seconds via the tail vein, and the weight of plasmid injected into each mouse was 10 µg.\nEndpoint of the experiment and collection of liver samples: On day 5 or 15, that is, 24 hrs after the hydrodynamic injection of DGAT2 plasmid via the tail vein, all mice were euthanized by CO2 inhalation. After euthanasia, blood samples were collected from the heart and liver samples were collected. 2 liver tissues of about 70 mg were immersed in RNAlater®, and incubated overnight at 4 °C. The supernatant was discarded and the remainder was transferred to a freezer at -80°C, for mRNA detection later.\nRNA in the liver was extracted with Trizol. The method was briefly described as follows: 50-70 mg of liver tissue and 1.2 mL of Trizol were homogenized with Qiagen Tissue Lyser II at 26 Hz for 2 min and lyzed at room temperature for 5 min. 1 mL of the supernatant was taken, added to 200 uL of chloroform, vigorously shaken for 15 s, allowed to stand for 3 min, and centrifuged. The supernatant was collected, added with an equal volume of isopropanol, and stood overnight at -20°C for precipitation. The precipitate was washed twice with 70% , and dissolved in water without RNase. The concentration of the RNA sample was determined by Nanodrop ONE and diluted to 400 ng/uL with water without RNase for reverse transcription.\nThe experimental steps of reverse transcription could be made reference to the instruction of FastKing cDNA first strand synthesis kit (genome clean). Briefly, a gDNA removal mixture was prepared according to Table 6. The mixture (5 µL/sample) and 400 ng/µL RNA sample were added to a 96-well PCR reaction plate, incubated at 42°C for 3 min, and cooled on ice. A mixture for reverse transcription was prepared according to Table 7. The reverse transcription mixture (10 µL/sample) and the DNA removal product of the previous step were added to a 96-well PCR reaction plate, for reverse transcription. Reaction conditions: 42°C for 15 min; and 95°C for 3 min. The cDNA was stored at 4°C for further analysis. Table 6. Ingredients for gDNA-removal reaction\nReaction conditions: 95°C for 10 min; and 40 cycles of 95°C for 15 s, and 60°C for 1 min. Table 8. Ingredients for qPCR Reaction (DGAT2)\nThe expression of the target gene in each sample was analyzed by relative quantification using ΔΔCt method. In this method, the Ct difference (ΔCt) between the target gene (DGAT2) and the internal reference gene (Neo) was determined, and the ΔCt value of the sample treated with the compound was compared with that of the control group.\nThe formula is: ΔCt = average Ct value of target gene−average Ct value of reference gene. [formula] [formula]\nData analysis: The data are expressed as the average of each group of mouse samples ± standard error. Unless otherwise specified, n=4 or 5. Student's t test was used for statistical analysis. Table 10.1 Test for evaluating the in-vivo inhibitory activity of siRNA compounds on target gene DGAT2 in mice model receiving hDGAT2 HDI 5 days after administration",
  "data": [
    {"substance": "dS319: sense (invAb)*acaccauaGfAfCfuauuugcuua[L96]; anti-sense Vpu*Af*a*GfcAfaauagUfcUfaUfgGfuGf* u", "values": [
      {"measurement": "Average inhibition rate, % Day 1 after HDI (day 15 after administration)", "result": 91.79, "unit": "%"}
    ]}
  ]
}
